The nature of the data set: release profiles of drugs from halloysite tubule compositions, relative to total release amounts (FIGS. 4 and 5). It counts as physicochemical. Particulars: release from mineral-derived tubule composition relative to total release amount; FIG. 4 (Tetracycline), FIG. 5 (Khellin).

Excerpt: FIGS. 4 and 5, respectively illustrate, relative to total release amounts, the release profiles for two drugs (Tetracycline and Khellin), wherein prolonged application periods are desired.

`COc1c2occc2c(OC)c2c(=O)cc(C)oc12` [Khellin]: the “release profile extends for” value was “several days”.
